# System: H9 embryonic stem cells
# Assay: Microarray analysis of definitive endoderm stage cells on […] or MEFs +/- Wnt-3a (Table VI)
# Format: cell-based, human
# Conditions: low serum
# Experimental: Controls for each group included cells plated on [sequence]—coated dishes and cultured in MEF-conditioned medium or cells plated on MEFs and cultured in ES medium. All groups contained three biological replicates and each biological replicate was repeated on two separate gene chips.
# Sample preparation, hybridization, and image analysis were performed according to the Affymetrix Human Genome U133 Plus 2.0 Array. Following normalization and a log transformation, data analysis was performed using OmniViz® software (MA) and [sequence] […] Significant differences in gene expression between the samples were evaluated using analysis of variance and an F-test with adjusted P-value (Benjamini and Hochberg correction) of less-than or equal to 0.05. Only genes with a present call in at least one group were included in the analysis.
substance,measurement,setting,value
"Activin A: activin A (a member of the TGFβ superfamily), R&D Systems; 'w/o wnt' in Table VII = 100 ng/ml Activin A without Wnt3a",Intensity (log): neuropilin 1,on MATRIGEL,−1.623
same,Intensity (log): noggin,on MATRIGEL,−1.636
same,"Intensity (log): splicing factor, arginine serine-rich 5",on MATRIGEL,0.7481
same,Intensity (log): stanniocalcin 1,on MATRIGEL,2.411
same,Intensity (log): ESTs,"on MATRIGEL, r13",−4.827
same,Intensity (log): ESTs,"on MATRIGEL, r16",−3.437
same,"Intensity (log): solute carrier family 16 (monocarboxylic acid transporters), member 3","on MATRIGEL, r20",−0.06641
same,"Intensity (log): Homo sapiens solute carrier family 16 (monocarboxylic acid transporters), member 3 (SLC16A3), mRNA","on MATRIGEL, r30",0.7103
same,Intensity (log): ESTs,"on MATRIGEL, r49",−0.04716
same,Intensity (log): glycophorin B (includes Ss blood group),"on MATRIGEL, r50",−2.852
same,Intensity (log): ESTs,"on MATRIGEL, r62",−4.936
same,"Intensity (log): Homo sapiens HNF-3beta mRNA for hepatocyte nuclear factor-3 beta, complete cds","on MATRIGEL, r66",−2.718
same,Intensity (log): ESTs,"on MATRIGEL, r81",−2.336
same,Intensity (log): ESTs,"on MATRIGEL, r92",−2.896
same,Intensity (log): ESTs,"on MATRIGEL, r98",−3.098
same,Intensity (log): ESTs,"on MATRIGEL, r108",−1.401
same,"Intensity (log): Homo sapiens phorbolin-like protein MDS019 (MDS019), mRNA","on MATRIGEL, r121",−1.119
same,Intensity (log): ESTs,"on MATRIGEL, r129",−1.555
same,Intensity (log): ESTs,"on MATRIGEL, r136",−0.7315
same,Intensity (log): ESTs,"on MATRIGEL, r137",−2.036
same,Intensity (log): ESTs,"on MATRIGEL, r142",−0.6486
same,Intensity (log): ESTs,"on MATRIGEL, r145",−1.782
same,"Intensity (log): Cluster Incl. AB028021: Homo sapiens HNF-3beta mRNA for hepatocyte nuclear factor-3 beta, complete cds","on MATRIGEL, r165",−1.5339
same,Intensity (log): hypothetical protein FLJ23403,"on MATRIGEL, r205",−1.456
same,Intensity (log): matrix metalloproteinase 14 (membrane-inserted),"on MATRIGEL, r215",−2.057
same,"Intensity (log): Homo sapiens glycophorin B (includes Ss blood group) (GYPB), mRNA","on MATRIGEL, r218",−0.9473
same,Intensity (log): ESTs,"on MATRIGEL, r234",0.8128
same,Intensity (log): ESTs,"on MATRIGEL, r240",1.068
same,Intensity (log): ESTs,"on MATRIGEL, r241",−1.412
same,Intensity (log): KIAA0878 protein,"on MATRIGEL, r250",1.1189
same,Intensity (log): ESTs,"on MATRIGEL, r260",1.481
same,"Intensity (log): Homo sapiens matrix metalloproteinase 14 (membrane-inserted) (MMP14), mRNA","on MATRIGEL, r270",−0.7235
same,Intensity (log): ESTs,"on MATRIGEL, r278",0.5216
same,Intensity (log): ESTs,"on MATRIGEL, r290",0.3072
same,Intensity (log): ESTs,"on MATRIGEL, r301",−3.574
same,Intensity (log): ESTs,"on MATRIGEL, r314",−0.05909
same,"Intensity (log): Homo sapiens hypothetical protein FLJ23403 (FLJ23403), mRNA","on MATRIGEL, r315",−1.485
same,Intensity (log): ESTs,"on MATRIGEL, r319",−0.1824
same,"Intensity (log): Homo sapiens KIAA0878 protein (KIAA0878), mRNA","on MATRIGEL, r332",2.0265
same,Intensity (log): phorbolin-like protein MDS019,"on MATRIGEL, r340",−1.118
same,Intensity (log): ESTs,"on MATRIGEL, r347",0.3539
same,Intensity (log): ESTs,"on MATRIGEL, r376",−0.3497
same,Intensity (log): ESTs,"on MATRIGEL, r377",−0.9033
same,"Intensity (log): 6-phosphofructo-2-kinasefructose-2,6-biphosphatase 4",on MEFS,1.6
same,"Intensity (log): ESTs, Highly similar to IHH_HUMAN INDIAN HEDGEHOG PROTEIN PRECURSOR (H. sapiens)",on MEFS,0.5905
same,"Intensity (log): ESTs, Moderately similar to JE0284 Mm-1 cell derived transplantability-associated protein 1b (H. sapiens)",on MEFS,4.222
same,"Intensity (log): ESTs, Weakly similar to FCE2 MOUSE LOW AFFINITY IMMUNOGLOBULIN EPSILON FC RECEPTOR (M. musculus)",on MEFS,3.48
same,"Intensity (log): ESTs, Weakly similar to the 331st table hypothetical protein KIAA0555 (H. sapiens)",on MEFS,0.4436
same,Intensity (log): G protein-coupled receptor,on MEFS,5.053
same,Intensity (log): G protein-coupled receptor 49,on MEFS,2.505
same,"Intensity (log): Homo sapiens Kell blood group (KEL), mRNA",on MEFS,−0.3839
same,"Intensity (log): Homo sapiens MLL septin-like fusion (MSF), mRNA",on MEFS,−1.5
same,"Intensity (log): Homo sapiens Mix-like homeobox protein 1 (MILD1) mRNA, complete cds",on MEFS,0.922
same,"Intensity (log): Homo sapiens Rho GTPase activating protein 6 (ARHGAP6), transcript variant 2, mRNA",on MEFS,−1.285
same,"Intensity (log): Homo sapiens TBX3-iso protein (TBX3-iso), mRNA",on MEFS,1.07
same,"Intensity (log): Homo sapiens angiopoietin 2 (ANGPT2), mRNA",on MEFS,0.5968
same,"Intensity (log): Homo sapiens ankyrin-like with transmembrane domains 1 (ANKTM1), mRNA",on MEFS,2.819
same,"Intensity (log): Homo sapiens apolipoprotein A-I (APOA1), mRNA",on MEFS,2.469
same,"Intensity (log): Homo sapiens apolipoprotein A-II (APOA2), mRNA",on MEFS,4.469
same,"Intensity (log): Homo sapiens arylsulfatase E (chondrodysplasia punctata 1) (ARSE), mRNA",on MEFS,3.184
same,"Intensity (log): Homo sapiens atrophin-1 interacting protein 1; activin receptor interacting protein 1 (KIAA0705), mRNA",on MEFS,−1.32
same,"Intensity (log): Homo sapiens beta-site APP cleaving enzyme (BACE) mRNA, complete cds",on MEFS,1.754
same,"Intensity (log): Homo sapiens cDNA FLJ11550 fis, clone HEMBA1002970",on MEFS,4.216
same,"Intensity (log): Homo sapiens cDNA FLJ12993 fis, clone NT2RP3000197",on MEFS,2.069
same,"Intensity (log): Homo sapiens cDNA FLJ13221 fis, clone NT2RP4002075",on MEFS,1.31
same,"Intensity (log): Homo sapiens cardiac ventricular troponin C mRNA, complete cds",on MEFS,1.4377
same,"Intensity (log): Homo sapiens cartilage linking protein 1 (CRTL1), mRNA",on MEFS,−0.8052
same,"Intensity (log): Homo sapiens cell adhesion molecule with homology to L1CAM (close homologue of L1) (CHL1), mRNA",on MEFS,−2.5002
same,"Intensity (log): Homo sapiens chromosome 19, cosmid R31181",on MEFS,0.2239
same,Intensity (log): Homo sapiens clone 23736 mRNA sequence,on MEFS,4.507
same,"Intensity (log): Homo sapiens cryptic mRNA, complete cds",on MEFS,−0.6735
same,"Intensity (log): Homo sapiens cystatin S (CST4), mRNA",on MEFS,3.87
same,"Intensity (log): Homo sapiens cystatin SA (CST2), mRNA",on MEFS,2.1671
same,"Intensity (log): Homo sapiens cystatin SN (CST1), mRNA",on MEFS,4.64
same,"Intensity (log): Homo sapiens cytidine deaminase (CDA), mRNA",on MEFS,−1.67
same,"Intensity (log): Homo sapiens dual specificity phosphatase 4 (DUSP4), mRNA",on MEFS,4.122
same,"Intensity (log): Homo sapiens fibroblast growth factor 8 (androgen-induced) (FGF8), mRNA",on MEFS,0.01583
same,"Intensity (log): Homo sapiens fibroblast growth factor 17 (FGF17), mRNA",on MEFS,2.4872
same,"Intensity (log): Homo sapiens frizzled-related protein (FRZB), mRNA",on MEFS,3.676
same,"Intensity (log): Homo sapiens gastrin-releasing peptide (GRP), mRNA",on MEFS,0.5098
same,"Intensity (log): Homo sapiens glycophorin E (GYPE), mRNA",on MEFS,−1.501
same,Intensity (log): Homo sapiens glycophorin Erik STA (GPErik) gene complete cds,on MEFS,−0.4544
same,"Intensity (log): Homo sapiens growth differentiation factor 3 (GDF3), mRNA",on MEFS,2.875
same,"Intensity (log): Homo sapiens haptoglobin (HP), mRNA",on MEFS,0.477

# From US9096832B2, “Differentiation of human embryonic stem cells” (LifeScan, Inc., priority 2007, dated 2015)
